Laboratory results from PMC6746691 (European Journal of Drug Metabolism and Pharmacokinetics, 2019).

Experiments:
[1] = Vancomycin clinical pharmacokinetics and serum concentrations; settings: for AUC per TDM adjusted dose / AUC per initial dose: NONMEM; for AUC per TDM adjusted dose / t1/2 / AUC per initial dose / Initial vancomycin serum concentration, Peak / Initial vancomycin serum concentration, Trough-2 / Initial vancomycin serum concentration, Trough-1: median [IQR]; for Cl / Ke / Vd / t1/2: at treatment initiation; for Cl / Ke / Vd / Post-dose adjustment trough concentration: mean ± SD, SD; for AUC per initial dose: pre-TDM dose; for Initial vancomycin serum concentration, Peak / Initial vancomycin serum concentration, Trough-2 / Initial vancomycin serum concentration, Trough-1: pre-TDM; for Initial vancomycin serum concentration, Peak: 1–2 h post fourth dose infusion; for Initial vancomycin serum concentration, Trough-2: 30 min before the fifth dose; for Initial vancomycin serum concentration, Trough-1: 30 min before the fourth dose
[2] = Vancomycin treatment safety outcomes; type: in vivo, hospitalized adults (patients); settings: for Neutropenia: absolute neutrophil counts < 1000/μL
[3] = tested on: suspected/confirmed staphylococcal or other Gram-positive infection; assay: Clinical effectiveness; type: in vivo, hospitalized adults (patients); settings: for Length of hospitalization: median [min–max]
[4] = peak–trough-monitoring group (n = 30)
[5] = trough-only-monitoring group (n = 35)

CN[C@H](CC(C)C)C(=O)N[C@H]1C(=O)N[C@@H](CC(N)=O)C(=O)N[C@H]2C(=O)N[C@H]3C(=O)N[C@H](C(=O)N[C@H](C(=O)O)c4cc(O)cc(O)c4-c4cc3ccc4O)[C@H](O)c3ccc(c(Cl)c3)Oc3cc2cc(c3O[C@@H]2O[C@H](CO)[C@@H](O)[C@H](O)[C@H]2O[C@H]2C[C@](C)(N)[C@H](O)[C@H](C)O2)Oc2ccc(cc2Cl)[C@H]1O [vancomycin]
AUC per TDM adjusted dose [1, 4]: 223 [168.82] mg*h/L | AUC per TDM adjusted dose [1, 5]: 270 [156.02] mg*h/L | Cl [1, 4]: 4.24 ± 2.20 L/h | Ke [1, 4]: 0.089 ± 0.051 h⁻¹ | Vd [1, 4]: 51.14 ± 9.96 L | t1/2 [1, 4]: 7.23 [9.75] h | Cl [1, 5]: 4.15 ± 2.22 L/h | Ke [1, 5]: 0.094 ± 0.05 h⁻¹ | Vd [1, 5]: 48.5 ± 10.7 L | t1/2 [1, 5]: 8.01 [11.12] h | Post-dose adjustment trough concentration [1, 4]: 15.6 ± 3.49 mg/L | AUC per initial dose [1, 4]: 228 [273.01] mg*h/L | AUC per initial dose [1, 5]: 227 [195.6] mg*h/L | Initial vancomycin serum concentration, Peak [1, 4]: 27.9 [17.8] mg/L | Initial vancomycin serum concentration, Peak [1, 5]: 25 [10] mg/L | Initial vancomycin serum concentration, Trough-2 [1, 4]: 8.9 [15.1] mg/L | Initial vancomycin serum concentration, Trough-2 [1, 5]: 10.6 [10.5] mg/L | Initial vancomycin serum concentration, Trough-1 [1, 4]: 8.4 [12.9] mg/L | Initial vancomycin serum concentration, Trough-1 [1, 5]: 9 [8.3] mg/L | Post-dose adjustment trough concentration [1, 5]: 16.8 ± 3.09 mg/L | All-cause mortality [2, 4]: 2 (6.7) n (%) | Neutropenia [2, 4]: 1 (3.3) n (%) | All-cause mortality [2, 5]: 3 (8.6) n (%) | Neutropenia [2, 5]: 3 (8.6) n (%) | Therapeutic failure [3, 4]: 7 (23.3) n (%) | Length of hospitalization [3, 4]: 15.5 [4–68.9] days | Therapeutic failure [3, 5]: 18 (51.4) n (%) | Therapeutic cure ([3]; trough-only-monitoring group (n = 35), clinical and/or microbiologic cure, intention-to-treat): 17 (48.6) n (%) | Length of hospitalization [3, 5]: 20 [6–117] days
